Active and inactive are the calls of the source. No cut-off for these calls is given here. Where a SMILES comes first, the peptide text is derived from it.
Key:
[1] = biological target: T1, Dickkopf WNT-signaling pathway inhibitor 1 (Rattus norvegicus) (UniProt A6I0Z0); experiment: Inhibition of biotin-labeled rat recombinant DKK1 assessed as reduction in DKK1 interaction with LRP-6/Fc incubated overnight by chemiluminescence based Alpha-screen assay
T1 sequence (whole entry): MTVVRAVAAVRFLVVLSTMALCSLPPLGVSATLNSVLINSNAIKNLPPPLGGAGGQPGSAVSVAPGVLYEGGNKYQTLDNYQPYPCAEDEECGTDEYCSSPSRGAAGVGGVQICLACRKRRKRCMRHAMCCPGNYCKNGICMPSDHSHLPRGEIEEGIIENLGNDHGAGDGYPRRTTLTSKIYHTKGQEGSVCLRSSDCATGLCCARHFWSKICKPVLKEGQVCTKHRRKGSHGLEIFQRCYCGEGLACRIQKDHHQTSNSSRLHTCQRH

[2] = biological target: T2, Dickkopf-related protein 1 (Homo sapiens) (UniProt O94907); experiment: Inhibition of biotin-labeled human recombinant DKK1 assessed as reduction in DKK1 interaction with LRP-6/Fc incubated overnight by chemiluminescence based Alpha-screen assay
T2 sequence (whole entry): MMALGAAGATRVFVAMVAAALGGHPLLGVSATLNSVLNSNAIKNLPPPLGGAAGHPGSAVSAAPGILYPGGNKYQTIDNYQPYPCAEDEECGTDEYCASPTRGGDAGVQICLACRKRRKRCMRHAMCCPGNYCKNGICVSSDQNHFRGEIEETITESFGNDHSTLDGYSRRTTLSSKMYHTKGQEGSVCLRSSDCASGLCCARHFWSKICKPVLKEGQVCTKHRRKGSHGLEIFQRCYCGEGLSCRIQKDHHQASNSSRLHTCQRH

[3] = biological target: T3, Dickkopf-related protein 1 (Homo sapiens, UniProt O94907); experiment: Inhibition of human DKK1 in MC3T3E1/TetON-Wnt1/STF-Luc#5 cells assessed as DKK1 neutralizing activity by Wnt1-induced TCF/LEF luciferase reporter gene assay
T3 sequence (O94907 whole entry): T2 sequence (whole entry)

Structure (SMILES) | inhibition [1] | inhibition [2] | IC50 [3] [nM]
CSCC[C@H](NC(=O)[C@@H]1CCCN1C(=O)[C@H](Cc1ccc(O)cc1)NC(=O)[C@H](CS)NC(=O)[C@H](Cc1cnc[nH]1)NC(=O)[C@@H]1CCCN1C(=O)[C@H](Cc1cnc[nH]1)NC(=O)[C@H](CC(N)=O)NC(=O)[C@H](CCCNC(=N)N)NC(=O)[C@H](CS)NC(=O)[C@H](CCCCN)NC(=O)[C@H](Cc1ccccc1)NC(=O)[C@H](Cc1ccc(O)cc1)NC(=O)[C@H](CO)NC(=O)[C@H](C)NC(=O)[C@@H]1CCCN1C(=O)[C@@H](N)CS)C(=O)N[C@@H](CCC(=O)O)C(=O)N[C@@H](Cc1c[nH]c2ccccc12)C(=O)N[C@@H](CCCNC(=N)N)C(=O)N[C@@H](CS)C(=O)N[C@@H](CC(=O)O)C(=O)NCC(=O)N[C@@H](Cc1ccccc1)C(=O)N[C@@H](C)C(=O)N[C@@H](CC(=O)O)C(=O)N[C@@H](CS)C(=O)N[C@H](C(=O)N[C@@H](CC(=O)O)C(=O)NCC(=O)N[C@@H](CO)C(=O)N[C@@H](CC(=O)O)C(=O)N[C@@H](CCC(=O)O)C(=O)N[C@@H](CC(C)C)C(=O)N[C@@H](CO)C(=O)N[C@@H](CS)C(=O)NCC(=O)NCC(=O)NCC(=O)NCC(=O)O)C(C)C (H-CPASYFKCRNHPHCYPMEWRCDGFADCVDGSDELSCGGGG-OH) | Active | Active | 0.8 to 3
CSCC[C@H](NC(=O)[C@@H]1CCCN1C(=O)[C@H](Cc1ccc(O)cc1)NC(=O)[C@H](CS)NC(=O)[C@H](Cc1cnc[nH]1)NC(=O)[C@@H]1CCCN1C(=O)[C@H](Cc1cnc[nH]1)NC(=O)[C@H](Cc1ccc(O)cc1)NC(=O)[C@H](CCCNC(=N)N)NC(=O)[C@H](CS)NC(=O)[C@H](CCCCN)NC(=O)[C@H](Cc1ccccc1)NC(=O)[C@H](Cc1ccc(O)cc1)NC(=O)[C@H](CO)NC(=O)[C@H](C)NC(=O)[C@@H]1CCCN1C(=O)[C@@H](N)CS)C(=O)N[C@@H](CCC(=O)O)C(=O)N[C@@H](Cc1c[nH]c2ccccc12)C(=O)N[C@@H](CCCNC(=N)N)C(=O)N[C@@H](CS)C(=O)N[C@@H](CC(=O)O)C(=O)NCC(=O)N[C@@H](Cc1ccccc1)C(=O)N[C@@H](CO)C(=O)N[C@@H](CC(=O)O)C(=O)N[C@@H](CS)C(=O)N[C@H](C(=O)N[C@@H](CC(=O)O)C(=O)NCC(=O)N[C@@H](CO)C(=O)N[C@@H](CC(=O)O)C(=O)N[C@@H](CCC(=O)O)C(=O)N[C@@H](CCC(=O)O)C(=O)N[C@@H](C)C(=O)N[C@@H](CS)C(=O)NCC(=O)NCC(=O)NCC(=O)NCC(=O)O)C(C)C (H-CPASYFKCRYHPHCYPMEWRCDGFSDCVDGSDEEACGGGG-OH) | Active | Active | 0.8 to 3
CC[C@H](C)[C@H](NC(=O)[C@H](CS)NC(=O)[C@H](CC(=O)O)NC(=O)[C@@H]1CCCN1C(=O)[C@H](Cc1ccccc1)NC(=O)CNC(=O)[C@H](CC(=O)O)NC(=O)[C@H](CS)NC(=O)[C@H](CCCNC(=N)N)NC(=O)[C@H](Cc1c[nH]c2ccccc12)NC(=O)[C@H](CCC(=O)O)NC(=O)[C@H](CCSC)NC(=O)[C@@H]1CCCN1C(=O)[C@H](Cc1ccc(O)cc1)NC(=O)[C@H](CS)NC(=O)[C@H](Cc1cnc[nH]1)NC(=O)[C@@H]1CCCN1C(=O)[C@H](CC(C)C)NC(=O)[C@H](CC(N)=O)NC(=O)CNC(=O)[C@H](CS)NC(=O)[C@H](CCC(N)=O)NC(=O)[C@H](Cc1ccccc1)NC(=O)[C@H](Cc1ccc(O)cc1)NC(=O)[C@H](CO)NC(=O)[C@H](C)NC(=O)[C@@H]1CCCN1C(=O)[C@@H](N)CS)C(=O)N[C@@H](CC(=O)O)C(=O)NCC(=O)N[C@@H](CO)C(=O)N[C@@H](CC(=O)O)C(=O)N[C@@H](CCC(=O)O)C(=O)N[C@@H](CCCCN)C(=O)NCC(=O)N[C@@H](CS)C(=O)NCC(=O)NCC(=O)NCC(=O)NCC(=O)O (H-CPASYFQCGNLPHCYPMEWRCDGFPDCIDGSDEKGCGGGG-OH) | Active | Active | 0.8 to 3
CC[C@H](C)[C@H](NC(=O)[C@H](CS)NC(=O)[C@H](CC(=O)O)NC(=O)[C@@H]1CCCN1C(=O)[C@H](Cc1ccccc1)NC(=O)CNC(=O)[C@H](CC(=O)O)NC(=O)[C@H](CS)NC(=O)[C@H](CCCNC(=N)N)NC(=O)[C@H](Cc1c[nH]c2ccccc12)NC(=O)[C@H](CCC(=O)O)NC(=O)[C@H](CCSC)NC(=O)[C@@H]1CCCN1C(=O)[C@H](Cc1ccc(O)cc1)NC(=O)[C@H](CS)NC(=O)[C@H](Cc1cnc[nH]1)NC(=O)[C@@H]1CCCN1C(=O)[C@H](Cc1cnc[nH]1)NC(=O)[C@H](CCCCN)NC(=O)[C@H](CCCNC(=N)N)NC(=O)[C@H](CS)NC(=O)[C@H](CCC(N)=O)NC(=O)[C@H](Cc1ccccc1)NC(=O)[C@H](Cc1ccc(O)cc1)NC(=O)[C@H](CO)NC(=O)[C@H](C)NC(=O)[C@@H]1CCCN1C(=O)[C@@H](N)CS)C(=O)N[C@@H](CC(=O)O)C(=O)NCC(=O)N[C@@H](CO)C(=O)N[C@@H](CC(=O)O)C(=O)N[C@@H](CCC(=O)O)C(=O)N[C@@H](CCC(=O)O)C(=O)N[C@@H](CCCNC(=N)N)C(=O)N[C@@H](CS)C(=O)NCC(=O)NCC(=O)NCC(=O)NCC(=O)O (H-CPASYFQCRKHPHCYPMEWRCDGFPDCIDGSDEERCGGGG-OH) | Active | Active | 0.8 to 3
CSCC[C@H](NC(=O)[C@@H]1CCCN1C(=O)[C@H](Cc1ccc(O)cc1)NC(=O)[C@H](CS)NC(=O)[C@H](Cc1cnc[nH]1)NC(=O)[C@@H]1CCCN1C(=O)[C@H](Cc1cnc[nH]1)NC(=O)[C@H](CCCNC(=N)N)NC(=O)[C@H](CCCNC(=N)N)NC(=O)[C@H](CS)NC(=O)[C@H](CCC(N)=O)NC(=O)[C@H](Cc1ccccc1)NC(=O)[C@H](Cc1ccc(O)cc1)NC(=O)[C@H](CO)NC(=O)[C@H](C)NC(=O)[C@@H]1CCCN1C(=O)[C@@H](N)CS)C(=O)N[C@@H](CCC(=O)O)C(=O)N[C@@H](Cc1c[nH]c2ccccc12)C(=O)N[C@@H](CCCNC(=N)N)C(=O)N[C@@H](CS)C(=O)N[C@@H](CC(=O)O)C(=O)NCC(=O)N[C@@H](Cc1ccccc1)C(=O)N1CCC[C@H]1C(=O)N[C@@H](CC(=O)O)C(=O)N[C@@H](CS)C(=O)N[C@@H](CC(C)C)C(=O)N[C@@H](CC(=O)O)C(=O)NCC(=O)N[C@@H](CO)C(=O)N[C@@H](CC(=O)O)C(=O)N[C@@H](CCC(=O)O)C(=O)N[C@@H](CCC(=O)O)C(=O)NCC(=O)N[C@@H](CS)C(=O)NCC(=O)NCC(=O)NCC(=O)NCC(=O)O (H-CPASYFQCRRHPHCYPMEWRCDGFPDCLDGSDEEGCGGGG-OH) | Active | Active | 0.8 to 3
CC[C@H](C)[C@H](NC(=O)[C@H](CS)NC(=O)[C@H](CC(=O)O)NC(=O)[C@@H]1CCCN1C(=O)[C@H](Cc1ccccc1)NC(=O)CNC(=O)[C@H](CC(=O)O)NC(=O)[C@H](CS)NC(=O)[C@H](CCCNC(=N)N)NC(=O)[C@H](Cc1c[nH]c2ccccc12)NC(=O)[C@H](CCC(=O)O)NC(=O)[C@H](CCSC)NC(=O)[C@@H]1CCCN1C(=O)[C@H](Cc1ccc(O)cc1)NC(=O)[C@H](CS)NC(=O)[C@H](Cc1cnc[nH]1)NC(=O)[C@@H]1CCCN1C(=O)[C@H](Cc1cnc[nH]1)NC(=O)[C@H](Cc1c[nH]c2ccccc12)NC(=O)[C@H](CCCNC(=N)N)NC(=O)[C@H](CS)NC(=O)[C@H](CCC(N)=O)NC(=O)[C@H](Cc1ccccc1)NC(=O)[C@H](Cc1ccc(O)cc1)NC(=O)[C@H](CO)NC(=O)[C@H](C)NC(=O)[C@@H]1CCCN1C(=O)[C@@H](N)CS)C(=O)N[C@@H](CC(=O)O)C(=O)NCC(=O)N[C@@H](CO)C(=O)N[C@@H](CC(=O)O)C(=O)N[C@@H](CCC(=O)O)C(=O)N[C@@H](CCC(=O)O)C(=O)N[C@@H](CO)C(=O)N[C@@H](CS)C(=O)NCC(=O)NCC(=O)NCC(=O)NCC(=O)O (H-CPASYFQCRWHPHCYPMEWRCDGFPDCIDGSDEESCGGGG-OH) | Active | Active | 0.8 to 3
CSCC[C@H](NC(=O)[C@@H]1CCCN1C(=O)[C@H](Cc1ccc(O)cc1)NC(=O)[C@H](CS)NC(=O)[C@H](Cc1cnc[nH]1)NC(=O)[C@@H]1CCCN1C(=O)[C@H](Cc1cnc[nH]1)NC(=O)[C@H](CC(N)=O)NC(=O)[C@H](CCCNC(=N)N)NC(=O)[C@H](CS)NC(=O)[C@H](CCCNC(=N)N)NC(=O)[C@H](Cc1ccccc1)NC(=O)[C@H](Cc1ccc(O)cc1)NC(=O)[C@H](CO)NC(=O)[C@H](C)NC(=O)[C@@H]1CCCN1C(=O)[C@@H](N)CS)C(=O)N[C@@H](CCC(=O)O)C(=O)N[C@@H](Cc1c[nH]c2ccccc12)C(=O)N[C@@H](CCCNC(=N)N)C(=O)N[C@@H](CS)C(=O)N[C@@H](CC(=O)O)C(=O)NCC(=O)N[C@@H](Cc1ccccc1)C(=O)N[C@@H](CCC(=O)O)C(=O)N[C@@H](CC(=O)O)C(=O)N[C@@H](CS)C(=O)N[C@H](C(=O)N[C@@H](CC(=O)O)C(=O)NCC(=O)N[C@@H](CO)C(=O)N[C@@H](CC(=O)O)C(=O)N[C@@H](CCC(=O)O)C(=O)N[C@@H](CC(C)C)C(=O)N[C@@H](CC(=O)O)C(=O)N[C@@H](CS)C(=O)NCC(=O)NCC(=O)NCC(=O)NCC(=O)O)C(C)C (H-CPASYFRCRNHPHCYPMEWRCDGFEDCVDGSDELDCGGGG-OH) | Active | Active | 0.8 to 3
